Assay results as given in ChEMBL document CHEMBL1781973, “Novel and Potent 5-Piperazinyl Methyl-N 1-aryl Sulfonyl Indole Derivatives as 5-HT6 Receptor Ligands” (ACS Med Chem Lett, 2010).
The source made the active and inactive calls. The rule behind the calls is not given here.

Experiments:
CYP3A4 [1] = target: T1, CYP3A4 (Homo sapiens, UniProt P08684); experiment: Inhibition of human CYP3A4 at 3 uM; assay type: ADME
CYP2D6 [2] = target: T2, CYP2D6 (Homo sapiens, UniProt P10635); experiment: Inhibition of human CYP2D6 at 3 uM; assay type: ADME
CYP2C9*1 [3] = experiment: Inhibition of human CYP2C9*1 at 10 uM; assay type: ADME
[4] = target: 5-hydroxytryptamine receptor 4 (Homo sapiens, UniProt Q13639); experiment: Inhibition of human 5HT4 receptor expressed in CHO cells after 5 hrs by luciferase reporter assay; assay type: cell-based
CYP1A2 [5] = target: T3, CYP1A2 (Homo sapiens, UniProt P05177); experiment: Inhibition of human CYP1A2 at 3 uM; assay type: ADME
T3 sequence (P05177 whole entry): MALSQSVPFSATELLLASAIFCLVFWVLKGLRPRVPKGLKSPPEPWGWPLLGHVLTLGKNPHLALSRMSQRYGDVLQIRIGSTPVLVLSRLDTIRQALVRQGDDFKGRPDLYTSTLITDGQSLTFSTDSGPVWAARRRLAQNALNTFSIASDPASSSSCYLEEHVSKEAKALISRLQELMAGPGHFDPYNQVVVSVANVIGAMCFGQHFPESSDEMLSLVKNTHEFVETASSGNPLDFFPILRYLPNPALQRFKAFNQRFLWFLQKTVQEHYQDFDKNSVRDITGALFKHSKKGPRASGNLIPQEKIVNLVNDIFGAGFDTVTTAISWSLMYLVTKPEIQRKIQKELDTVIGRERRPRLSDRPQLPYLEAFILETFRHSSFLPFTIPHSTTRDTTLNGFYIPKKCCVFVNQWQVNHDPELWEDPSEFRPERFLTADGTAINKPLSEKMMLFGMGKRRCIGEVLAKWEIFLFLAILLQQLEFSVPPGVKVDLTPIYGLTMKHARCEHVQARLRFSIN

CYP2C9*1 [6] = experiment: Inhibition of human CYP2C9*1 at 3 uM; assay type: ADME
[7] = target: 5-hydroxytryptamine receptor 7 (Homo sapiens, UniProt P34969); experiment: Inhibition of human 5HT7 receptor expressed in CHO cells after 5 hrs by luciferase reporter assay; assay type: cell-based
CYP1A2 [8] = target: T3, CYP1A2; experiment: Inhibition of human CYP1A2 at 10 uM; assay type: ADME
CYP2A6 [9] = target: T4, CYP2A6 (Homo sapiens, UniProt P11509); experiment: Inhibition of human CYP2A6 at 10 uM; assay type: ADME
T4 sequence (P11509 whole entry): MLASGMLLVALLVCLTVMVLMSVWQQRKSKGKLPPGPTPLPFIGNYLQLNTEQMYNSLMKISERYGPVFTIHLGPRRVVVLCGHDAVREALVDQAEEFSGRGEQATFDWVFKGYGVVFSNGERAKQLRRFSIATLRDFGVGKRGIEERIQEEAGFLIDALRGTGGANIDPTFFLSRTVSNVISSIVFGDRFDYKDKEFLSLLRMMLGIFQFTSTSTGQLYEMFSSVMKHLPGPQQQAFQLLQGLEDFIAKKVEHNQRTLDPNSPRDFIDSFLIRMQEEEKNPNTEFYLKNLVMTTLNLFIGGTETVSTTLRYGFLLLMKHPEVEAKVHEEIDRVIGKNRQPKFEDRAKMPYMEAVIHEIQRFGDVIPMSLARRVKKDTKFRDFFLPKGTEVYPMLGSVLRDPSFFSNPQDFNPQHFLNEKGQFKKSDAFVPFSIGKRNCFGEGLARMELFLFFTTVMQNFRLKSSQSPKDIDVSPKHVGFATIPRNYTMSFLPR

CYP3A4 [10] = target: T1, CYP3A4; experiment: Inhibition of human CYP3A4 at 10 uM; assay type: ADME
CYP2D6 [11] = target: T2, CYP2D6; experiment: Inhibition of human CYP2D6 at 10 uM; assay type: ADME
[12] = target: T5, Muscarinic acetylcholine receptor M1 (Homo sapiens, UniProt P11229); experiment: Inhibition of human muscarinic M1 receptor expressed in CHO cells after 5 hrs by luciferase reporter assay; assay type: cell-based
T5 sequence (P11229 whole entry): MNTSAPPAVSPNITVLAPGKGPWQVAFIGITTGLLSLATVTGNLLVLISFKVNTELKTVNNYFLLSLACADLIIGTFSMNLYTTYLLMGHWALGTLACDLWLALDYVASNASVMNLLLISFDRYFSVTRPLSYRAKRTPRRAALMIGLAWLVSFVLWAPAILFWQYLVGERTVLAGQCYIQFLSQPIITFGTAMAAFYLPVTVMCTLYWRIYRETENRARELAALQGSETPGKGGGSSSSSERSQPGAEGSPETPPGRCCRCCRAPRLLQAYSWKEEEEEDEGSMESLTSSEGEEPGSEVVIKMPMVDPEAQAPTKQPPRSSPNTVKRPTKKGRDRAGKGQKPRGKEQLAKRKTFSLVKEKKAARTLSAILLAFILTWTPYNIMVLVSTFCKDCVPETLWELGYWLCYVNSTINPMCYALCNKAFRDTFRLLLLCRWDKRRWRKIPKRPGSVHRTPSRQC

CYP2A6 [13] = target: T4, CYP2A6; experiment: Inhibition of human CYP2A6 at 3 uM; assay type: ADME
CYP2C19 [14] = target: T6, CYP2C19 (Homo sapiens, UniProt P33261); experiment: Inhibition of human CYP2C19 at 10 uM; assay type: ADME
CYP2C19 [15] = target: T6, CYP2C19; experiment: Inhibition of human CYP2C19 at 3 uM; assay type: ADME
[16] = target: 5-hydroxytryptamine receptor 6 (Homo sapiens, UniProt P50406); experiment: biochemical
Description: Displacement of [3H]LSD from human 5HT6 receptor expressed in HEK293 cells

[17] = Cmax in fasted Wistar rat at 10 mg/kg, po; assay type: ADME, organism-based; parameters: dose 10 mg/kg, route oral; conditions: in vivo
[18] = Clearance in fasted Wistar rat at 10 mg/kg, po; assay type: ADME, organism-based; parameters: dose 10 mg/kg, route oral; conditions: in vivo
[19] = Half life in fasted Wistar rat at 10 mg/kg, iv; assay type: ADME, organism-based; parameters: dose 10 mg/kg, route intravenous; conditions: in vivo
Rattus norvegicus [20] = experiment: Cognitive enhancing effect against scopolamine-induced memory deficit in Wistar rat at 10 mg/kg, po by novel object recognition test; assay type: functional, organism-based; parameters: dose 10 mg/kg
Rattus norvegicus [21] = experiment: Apparent volume of distribution in fasted Wistar rat at 10 mg/kg, po; assay type: ADME, organism-based; parameters: dose 10 mg/kg, route oral; conditions: in vivo
[22] = Clearance in fasted Wistar rat at 10 mg/kg, iv; assay type: ADME, organism-based; parameters: dose 10 mg/kg, route intravenous; conditions: in vivo
Rattus norvegicus [23] = experiment: Cognitive enhancing effect against scopolamine-induced memory deficit in Wistar rat at 30 mg/kg, po administered 60 mins before acquisition training measured after 5 days by Morris water maze test; assay type: functional, organism-based; parameters: dose 30 mg/kg
[24] = Half life in fasted Wistar rat at 10 mg/kg, po; assay type: ADME, organism-based; parameters: dose 10 mg/kg, route oral; conditions: in vivo
[25] = Ratio of drug level at steady state in brain to plasma in fasted Wistar rat; assay type: ADME; conditions: read-out: BPR
[26] = AUCt in fasted Wistar rat at 10 mg/kg, iv; assay type: ADME, organism-based; parameters: dose 10 mg/kg, route intravenous; conditions: plasma
[27] = Oral bioavailability in fasted Wistar rat; assay type: ADME, organism-based; conditions: in vivo
[28] = Apparent volume of distribution in fasted Wistar rat at 10 mg/kg, iv; assay type: ADME, organism-based; parameters: dose 10 mg/kg, route intravenous; conditions: in vivo, read-out: Vz
[29] = Cmax in fasted Wistar rat at 10 mg/kg, iv; assay type: ADME, organism-based; parameters: dose 10 mg/kg, route intravenous; conditions: in vivo
[30] = AUCt in fasted Wistar rat at 10 mg/kg, po; assay type: ADME, organism-based; parameters: dose 10 mg/kg, route oral; conditions: plasma

T2 sequence (P10635 whole entry): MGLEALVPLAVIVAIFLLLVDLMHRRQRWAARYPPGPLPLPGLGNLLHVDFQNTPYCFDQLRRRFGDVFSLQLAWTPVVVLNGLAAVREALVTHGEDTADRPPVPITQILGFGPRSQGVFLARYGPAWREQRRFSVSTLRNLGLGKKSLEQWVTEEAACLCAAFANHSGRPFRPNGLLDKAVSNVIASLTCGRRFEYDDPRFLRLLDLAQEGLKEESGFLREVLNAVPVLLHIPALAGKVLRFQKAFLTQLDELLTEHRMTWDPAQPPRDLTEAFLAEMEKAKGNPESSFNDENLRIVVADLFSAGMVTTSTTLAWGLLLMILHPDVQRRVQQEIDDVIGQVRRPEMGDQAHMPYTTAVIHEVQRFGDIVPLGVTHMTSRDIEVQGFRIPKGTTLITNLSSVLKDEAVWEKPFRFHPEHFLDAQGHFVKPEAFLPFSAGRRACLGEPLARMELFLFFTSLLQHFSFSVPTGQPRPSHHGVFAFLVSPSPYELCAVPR
T1 sequence (P08684 whole entry): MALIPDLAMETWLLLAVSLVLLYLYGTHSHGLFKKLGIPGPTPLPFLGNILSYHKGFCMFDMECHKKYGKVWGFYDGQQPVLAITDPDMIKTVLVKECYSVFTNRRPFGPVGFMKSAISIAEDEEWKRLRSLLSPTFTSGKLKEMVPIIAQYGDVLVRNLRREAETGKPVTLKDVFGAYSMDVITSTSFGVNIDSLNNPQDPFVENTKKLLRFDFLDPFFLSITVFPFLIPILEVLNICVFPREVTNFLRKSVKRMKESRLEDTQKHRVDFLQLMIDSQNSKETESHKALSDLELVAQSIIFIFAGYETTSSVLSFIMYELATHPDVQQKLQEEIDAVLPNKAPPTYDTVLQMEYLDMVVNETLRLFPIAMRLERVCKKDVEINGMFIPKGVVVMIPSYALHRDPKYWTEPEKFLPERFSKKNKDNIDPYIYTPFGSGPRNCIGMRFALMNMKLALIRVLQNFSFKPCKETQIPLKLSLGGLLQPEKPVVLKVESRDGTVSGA
T6 sequence (P33261 whole entry): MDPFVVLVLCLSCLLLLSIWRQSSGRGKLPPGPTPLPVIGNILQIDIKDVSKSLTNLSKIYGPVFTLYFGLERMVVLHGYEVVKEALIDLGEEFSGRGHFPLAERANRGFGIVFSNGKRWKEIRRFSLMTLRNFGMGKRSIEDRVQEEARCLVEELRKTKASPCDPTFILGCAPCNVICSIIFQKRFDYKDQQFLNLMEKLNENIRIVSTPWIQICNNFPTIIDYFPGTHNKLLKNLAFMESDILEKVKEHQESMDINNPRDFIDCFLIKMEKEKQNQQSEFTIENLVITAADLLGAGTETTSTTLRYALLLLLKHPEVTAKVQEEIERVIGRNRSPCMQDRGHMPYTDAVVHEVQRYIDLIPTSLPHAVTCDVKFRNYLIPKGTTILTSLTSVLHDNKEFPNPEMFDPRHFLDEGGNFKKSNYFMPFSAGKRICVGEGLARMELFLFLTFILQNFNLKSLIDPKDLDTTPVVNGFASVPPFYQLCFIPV
Sequence of 5-hydroxytryptamine receptor 6 (P50406 whole entry): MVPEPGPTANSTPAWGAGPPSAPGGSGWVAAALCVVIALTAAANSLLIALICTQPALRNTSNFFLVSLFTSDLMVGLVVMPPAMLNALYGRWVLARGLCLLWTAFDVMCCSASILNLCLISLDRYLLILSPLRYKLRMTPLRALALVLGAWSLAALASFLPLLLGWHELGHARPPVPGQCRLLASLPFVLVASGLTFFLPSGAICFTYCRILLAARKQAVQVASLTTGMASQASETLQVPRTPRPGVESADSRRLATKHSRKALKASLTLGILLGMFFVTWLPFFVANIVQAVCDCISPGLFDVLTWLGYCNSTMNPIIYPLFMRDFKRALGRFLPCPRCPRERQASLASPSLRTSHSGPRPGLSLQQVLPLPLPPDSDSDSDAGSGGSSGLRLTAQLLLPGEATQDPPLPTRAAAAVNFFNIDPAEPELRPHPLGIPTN
Sequence of 5-hydroxytryptamine receptor 7 (P34969 whole entry): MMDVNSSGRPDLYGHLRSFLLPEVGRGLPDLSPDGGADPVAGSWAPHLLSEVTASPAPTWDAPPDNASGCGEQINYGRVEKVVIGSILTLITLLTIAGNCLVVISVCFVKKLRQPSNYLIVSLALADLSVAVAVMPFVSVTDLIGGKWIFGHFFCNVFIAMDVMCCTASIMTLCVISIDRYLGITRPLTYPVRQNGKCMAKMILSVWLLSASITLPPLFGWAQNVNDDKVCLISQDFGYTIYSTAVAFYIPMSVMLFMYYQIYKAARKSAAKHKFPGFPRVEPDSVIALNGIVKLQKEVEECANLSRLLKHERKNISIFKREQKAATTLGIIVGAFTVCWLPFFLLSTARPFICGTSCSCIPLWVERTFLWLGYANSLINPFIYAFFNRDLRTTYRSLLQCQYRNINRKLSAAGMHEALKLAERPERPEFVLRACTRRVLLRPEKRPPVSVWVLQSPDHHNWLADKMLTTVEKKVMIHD
Sequence of 5-hydroxytryptamine receptor 4 (Q13639 whole entry): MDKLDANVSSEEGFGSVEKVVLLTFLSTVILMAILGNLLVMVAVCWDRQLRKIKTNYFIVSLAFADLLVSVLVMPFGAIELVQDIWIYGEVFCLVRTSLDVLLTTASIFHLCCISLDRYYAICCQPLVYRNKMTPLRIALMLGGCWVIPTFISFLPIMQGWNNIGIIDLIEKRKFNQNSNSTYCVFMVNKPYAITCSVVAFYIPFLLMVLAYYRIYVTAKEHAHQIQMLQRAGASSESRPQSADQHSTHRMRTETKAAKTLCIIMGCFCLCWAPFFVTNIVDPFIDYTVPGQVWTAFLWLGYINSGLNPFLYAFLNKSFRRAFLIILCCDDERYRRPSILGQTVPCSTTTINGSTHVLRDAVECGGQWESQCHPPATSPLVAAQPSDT

Row | SMILES | inhibition at 3 µM (CYP3A4 [1]) | inhibition at 3 µM (CYP2D6 [2]) | inhibition at 10 µM (CYP2C9*1 [3]) | inhibition at 3 µM (CYP1A2 [5]) | inhibition at 3 µM (CYP2C9*1 [6]) | inhibition at 10 µM (CYP1A2 [8]) | inhibition at 10 µM (CYP2A6 [9]) | inhibition at 10 µM (CYP3A4 [10]) | inhibition at 10 µM (CYP2D6 [11]) | inhibition at 3 µM (CYP2A6 [13]) | inhibition at 10 µM (CYP2C19 [14]) | inhibition at 3 µM (CYP2C19 [15]) | Ki [16] | also measured
1 | O=S(=O)(c1ccc(F)cc1F)n1cc(Cl)c2cc(CN3CCNCC3)ccc21 | 26.4% | 1.46% | 27.8% | 14.5% | -12.6% | 14.6% | 6.37% | 45% | 17.7% | -3.62% | 72.9% | 31.9% | 5.57 nM | –
2 | CCN1CCN(Cc2ccc3c(ccn3S(=O)(=O)c3cccc(C(F)(F)F)c3)c2)CC1 | – | – | – | – | – | – | – | – | – | – | – | – | 5.72 nM | –
3 | CCN1CCN(Cc2ccc3c(ccn3S(=O)(=O)c3ccc(C(C)C)cc3)c2)CC1 | 30.5% | 10.4% | 46.3% | 14.5% | 7.12% | 18.2% | 21.9% | 68.1% | 35.7% | -1.26% | 51.1% | 23.9% | – | –
4 | CN1CCN(Cc2ccc3c(ccn3S(=O)(=O)c3ccccc3)c2)CC1 | 8.24% | 12% | 18.2% | 14.4% | -8.69% | 17.3% | 4.81% | 5.47% | 31.2% | -2.24% | 31.2% | 9.91% | – | –
5 | CCN1CCN(Cc2ccc3c(ccn3S(=O)(=O)c3ccc(F)cc3)c2)CC1 | 18.6% | 10.3% | 19.6% | 13.7% | -14.3% | 8.34% | 10.2% | 34.2% | 46% | -7.74% | 4.7% | 6.75% | – | –
6 | CN1CCN(Cc2ccc3c(ccn3C(=O)c3ccccc3)c2)CC1 | – | – | – | – | – | – | – | – | – | – | – | – | > 1000 nM | –
7 | CN1CCN(Cc2ccc3c(c2)c(Cl)cn3S(=O)(=O)c2ccc(Cl)cc2)CC1 | – | – | – | – | – | – | – | – | – | – | – | – | 9.33 nM | –

More lines, main results first:

Row | inhibition at 3 µM (CYP3A4 [1]) | inhibition at 3 µM (CYP2D6 [2]) | inhibition at 10 µM (CYP2C9*1 [3]) | inhibition at 3 µM (CYP1A2 [5]) | inhibition at 3 µM (CYP2C9*1 [6]) | inhibition at 10 µM (CYP1A2 [8]) | inhibition at 10 µM (CYP2A6 [9]) | inhibition at 10 µM (CYP3A4 [10]) | inhibition at 10 µM (CYP2D6 [11]) | inhibition at 3 µM (CYP2A6 [13]) | inhibition at 10 µM (CYP2C19 [14]) | inhibition at 3 µM (CYP2C19 [15]) | Ki [16] | SMILES | also measured
8 | 2.6% | 6.42% | 9.13% | 3.4% | 6.42% | 26.9% | 19.8% | 39% | 15.2% | 14.1% | 21.5% | 10.1% | – | CN1CCN(Cc2ccc3c(c2)c(Cl)cn3S(=O)(=O)c2ccc(F)cc2)CC1 | IC50 [4]: > 10000 nM; IC50 [7]: > 10000 nM; IC50 [12]: > 10000 nM
9 | – | – | – | – | – | – | – | – | – | – | – | – | > 1000 nM | CCN1CCN(Cc2ccc3c(ccn3Cc3ccccc3)c2)CC1 | –
10 | – | – | – | – | – | – | – | – | – | – | – | – | 28.2 nM | CCN1CCN(Cc2ccc3c(ccn3S(=O)(=O)c3ccc(Cl)cc3)c2)CC1 | –
11 | – | – | – | – | – | – | – | – | – | – | – | – | 11 nM | CCN1CCN(Cc2ccc3c(ccn3S(=O)(=O)c3ccc(C)cc3)c2)CC1 | –
12 | -3.67% | 48.3% | 15.9% | 3.64% | 7.47% | 17.9% | 10.8% | 32.9% | 76.2% | -0.39% | 43.6% | 22.8% | – | CCN1CCN(Cc2ccc3c(ccn3S(=O)(=O)c3ccccc3Br)c2)CC1 | Cmax [17]: 13 ng/mL; CL/F [18]: 2140 mL/min/kg; half-life [19]: 2.1 h; Activity (Rattus norvegicus [20]): Active; Vz (Rattus norvegicus [21]): 1035.145 L/kg; clearance [22]: 120 mL/min/kg; Activity (Rattus norvegicus [23]): Active; IC50 [4]: > 10000 nM; IC50 [7]: > 10000 nM; half-life [24]: 6.04 h; Kp [25]: 19.3; AUC(0-t) [26]: 1380 ng·h/mL; IC50 [12]: 1420 nM; bioavailability [27]: 4.2%; Vd [28]: 21.8 L/kg; Cmax [29]: 716 ng/mL; AUC(0-t) [30]: 59 ng·h/mL
13 | – | – | – | – | – | – | – | – | – | – | – | – | 3.15 nM | CN1CCN(Cc2ccc3c(ccn3S(=O)(=O)c3cccc(C(F)(F)F)c3)c2)CC1 | –
